Consider two molecules from patent US9119874B2, “Cell-penetrating markers of apoptosis” (TRUSTEES OF BOSTON COLLEGE, priority 2012, dated 2015).

The assay relates to Jurkat cells. Put plainly: Confocal microscopy of stained Jurkat cells with and without CPT treatment. It counts as cell-based. The text has this: FIGS. 5A-5D are confocal microscopy images of F1-EA staining Jurkat cell samples without the washing step. FIGS. 5A and 5C display the FITC channel; FIGS. 5B and 5D display the phase contrast channel.
FIGS. 6A-6D are micrographs depicting representative confocal images.
FIGS. 8A-8D are a series of micrographs depicting confocal microscopy images of Rhodamine B and Rd-EA staining Jurkat cell samples. FIGS. 8A and 8B show Rhodamine B stained cells while FIGS. 8C and 8D show Rd-EA stained cells. FIGS. 8A and 8C are CPT treated cells while
The specificity of F1-EA for apoptotic cells were further validated through a costaining experiment with the R-phycoerythrin labeled annexin V (AV-PE, yellow emission). […] The flow cytometry result was further validated with confocal microscopy analysis.

Regarding `CCN(CC)c1ccc2c(-c3ccccc3C(=O)O)c3ccc(=[N+](CC)CC)cc-3oc2c1.[Cl-]` [Rhodamine B], the “selectivity of staining for apoptotic cells” value (confocal images, CPT-treated vs untreated Jurkat cells) is given as “no selectivity”.

B1: AV-PE: R-phycoerythrin labeled annexin V (protein, UniProt P08758 2-320, looked up)
Annexin A5: AQVLRGTVTDFPGFDERADAETLRKAMKGLGTDEESILTLLTSRSNAQRQEISAAFKTLFGRDLLDDLKSELTGKFEKLIVALMKPSRLYDAYELKHALKGAGTNEKVLTEIIASRTPEELRAIKQVYEEEYGSSLEDDVVGDTSGYYQRMLVVLLQANRDPDAGIDEAQVEQDAQALFQAGELKWGTDEEKFITIFGTRSVSHLRKVFDKYMTISGFQIEETIDRETSGNLEQLLLAVVKSIRSIPAYLAETLYYAMKGAGTDDHTLIRVMVSRSEIDLFNIRKEFRKNFATSLYSMIKGDTSGDYKKALLLLCGEDD
modifications: R-phycoerythrin label
notes: R-phycoerythrin labeled annexin V
As to B1, the “location of the stain in CPT-treated cells” value (confocal image, CPT-treated Jurkat cells) is “membrane location”.
